How the values were obtained:
[1] = system: hM3DGq-expressing neurons; assay: Cell-attached recording of CA1 PC in slice after bath application of CNO; assay type: cell-based, mice; conditions: cell-attached mode
CA1 neurons = assay: AAV-based activity reporter mKate2 labelling of recently activated CA1 neurons; assay type: in vivo, mice; conditions: 24 h post-KA injection
Protocol: First, tests were performed to determine whether either of these forms of perisomatic inhibition (by PV-expressing INs and CCK-expressing INs) are differentially regulated onto Fos-expressing neurons compared to neighboring non-Fos-expressing neurons. Mice were exposed to a series of novel environments, which robustly activated Fos in a sparse subset of CA1 PCs (see e.g., FIG. 1A, FIG. 7A-FIG. 7D). To label these Fos-expressing neurons, an adeno-associated virus (AAV)-based reporter was used that expresses the fluorescent protein mKate2 selectively in recently activated neurons (see e.g., FIG. 1B); see e.g., Fenno et al. Nat Methods 11, 763-772, (2014), the content of which is incorporated herein by reference in its entirety. Using this reporter, a significant increase was detected in the number of recently activated neurons (mKate2^+) in mice exposed to 2-3 days (see e.g., FIG. 1D) of novel environments (NE) compared to control mice housed under standard (Strd) conditions (see e.g., FIG. 1C). This 2-3d timepoint was therefore appropriate for assessing the long-lasting effects of Fos and its late-response target gene(s), which were usually activated within 1-12 hours (h) of stimulus onset (see e.g., FIG. 1D).
Intraperitoneal (i.p.) injections.
Histology. Mice were anaesthetized with 10 mg/mL ketamine and 1 mg/mL xylazine in phosphate buffered saline (PBS) via i.p. injection. […]

CA1 = assay: Cell health in CA1 24 h post-KA (Hoechst, NeuN, cleaved-caspase 3 immunostaining); assay type: in vivo, mice; conditions: within 24 h of KA injection
Protocol: FIG. 8A-8Q is a series of schematics, images, and graphs showing IN-to-CA1 PC paired recordings and cell health parameters in 24 h post-KA condition. FIG. 8A and FIG. 8G are schematics of the genetic strategy to label PV-INs (PV^Cre; Ai14; FIG. 8A) or CCK-INs (D1×5/6^Flp; CCK^Cre; Ai65; FIG. 8G). FIG. 8B and FIG. 8H are representative images of tdTomato fluorescence in the CA1 field. Scale: 100 μm. N=2 mice per line. FIG. 8C and FIG. 8I are bar graphs showing quantification of the fraction of (FIG. 8C) PV- or (FIG. 8I) CCK-to-CA1 PC synaptically-connected pairs from the overall number of pairs recorded in both vehicle (Veh.) and 24 h post-KA mice. In FIG. 8C, Veh., n=13/22; KA, n=19/30; in FIG. 8I, Veh., n=16/40; KA, […], where n=number of connections/total pairs. FIG. 8D and FIG. 8J are dot plots showing quantification of the maximum firing rate of (FIG. 8D) PV- or (FIG. 8J) CCK-INs from connected pairs. […] FIG. 8E and FIG. 8K are dot plots showing quantification of spike adaptation ratio of (FIG. 8E) PV- or (FIG. 8J) CCK-INs from connected pairs as in FIG. 8D and FIG. 8J, respectively. FIG. 8F and FIG. 8L are line graphs showing quantification of paired pulse ratios (PPRs) of uIPSCs at the indicated interstimulus intervals (ISI) for (FIG. 8F) PV- (Veh., n=13/6; KA, n=19/7) or (FIG. 8L) CCK- (Veh., n=16/9; KA, n=16/4) to-CA1 PC connected pairs, where n=number of pairs/number of mice. […]

specific cell types = conditions: cited from earlier work

C[N+]1([O-])CCN(C2=Nc3cc(Cl)ccc3Nc3ccccc32)CC1 [CNO, clozapine N-oxide]
firing rate of hM3DGq-expressing CA1 PC [1]: firing rate increases

C=C(C)[C@H]1CN[C@H](C(=O)O)[C@H]1CC(=O)O [kainic acid]
average percentage of mKate2+ neurons over total number of DAPI cells (CA1 neurons): 96%
cell death (Hoechst+, NeuN+, cleaved-caspase+ cells per 40-μm section, all layers of CA1) (CA1): did not induce cell death

secretoneurin (TNEIVEEQYTPQSLATLESVFQELGKLTGPNNQ; listed as Homo sapiens) [33 aa]
chemotaxic effects on specific cell types (specific cell types): chemotaxic effects
